Converted amounts (≈) assume the structure as drawn.
Legend:
[1] = test system: Klebsiella pneumoniae ATCC BAA-2146; assay: Inhibition of NDM1 in Klebsiella pneumoniae ATCC BAA-2146 assessed as potentiation of meropenem-induced microbial growth inhibition by measuring compound MIC by cell-based synergy screening assay
[2] = test system: Klebsiella pneumoniae ATCC BAA-2146; assay: Inhibition of NDM1 in Klebsiella pneumoniae ATCC BAA-2146 assessed as potentiation of meropenem-induced microbial growth inhibition by cell-based synergy screening assay
[3] = Inhibition of NDM1 (unknown origin) pre-incubated for 10 mins before nitrocefin substrate addition
[4] = test system: Klebsiella pneumoniae; assay: Growth inhibition of Klebsiella pneumoniae ATCC BAA-2146
[5] = test system: Klebsiella pneumoniae ATCC BAA-2146; assay: Inhibition of NDM1 in Klebsiella pneumoniae ATCC BAA-2146 assessed as rescue concentration needed to fully regain activity of meropenem at clinical breakpoint (2.5 uM) by cell-based synergy screening assay
[6] = test system: Klebsiella pneumoniae ATCC BAA-2146; assay: Inhibition of NDM1 in Klebsiella pneumoniae ATCC BAA-2146 assessed as potentiation of meropenem-induced microbial growth inhibition by measuring meropenem MIC by cell-based synergy screening assay (Rvb (meropenem MIC alone) = 2 microg/ml)
[7] = test system: Klebsiella pneumoniae ATCC BAA-2146; assay: Inhibition of NDM1 in Klebsiella pneumoniae ATCC BAA-2146 assessed as potentiation of meropenem-induced microbial growth inhibition by measuring meropenem MIC by cell-based synergy screening assay (Rvb (meropenem MIC alone) = 8 microg/ml)
[8] = test system: Klebsiella pneumoniae ATCC BAA-2146; assay: Inhibition of NDM1 in Klebsiella pneumoniae ATCC BAA-2146 assessed as potentiation of meropenem-induced microbial growth inhibition by measuring meropenem MIC by cell-based synergy screening assay (Rvb (meropenem MIC alone) = 32.5 microg/ml)
[9] = test system: Klebsiella pneumoniae ATCC BAA-2146; assay: Inhibition of NDM1 in Klebsiella pneumoniae ATCC BAA-2146 assessed as potentiation of meropenem-induced microbial growth inhibition by measuring meropenem MIC by cell-based synergy screening assay (Rvb (meropenem MIC alone) = 65 microg/ml)
[10] = test system: Klebsiella pneumoniae ATCC BAA-2146; assay: Inhibition of NDM1 in Klebsiella pneumoniae ATCC BAA-2146 assessed as potentiation of meropenem-induced microbial growth inhibition by measuring meropenem MIC by cell-based synergy screening assay (Rvb (meropenem MIC alone) = 16.25 microg/ml)

Compound | MIC [1] [µg/mL] | fractional inhibitory concentration index (FICI) [2] | IC50 ([3]; read-out: IC50) [µM] | MIC [4] [µg/mL] | Activity [5] [µM] | MIC [6] [µg/mL] | MIC [7] [µg/mL] | MIC [8] [µg/mL] | MIC [9] [µg/mL] | MIC [10] [µg/mL] | IC50 [3]
N[C@@H](CN[C@@H](CN[C@@H](CC(=O)O)C(=O)O)C(=O)O)C(=O)O | > 250 | < 0.28 | 7 | 62.5 (≈ 203 µM) | 25 | 65 |  |  |  |  | 
N[C@H](CN[C@H](CN[C@@H](CC(=O)O)C(=O)O)C(=O)O)C(=O)O | > 250 | < 0.62 | 8.1 | 125 (≈ 407 µM) | 50 |  | 65 |  |  |  | 
C[C@@H](CN[C@@H](CN[C@@H](CC(=O)O)C(=O)O)C(=O)O)C(=O)O | > 250 | < 0.62 | 10.4 | 125 (≈ 408 µM) | 50 |  | 65 |  |  |  | 
N[C@@H](CN[C@@H](CN1CCC[C@@H]1C(=O)O)C(=O)O)C(=O)O | > 406 | < 1.5 | 9 | 406 (≈ 1400 µM) | > 100 |  |  | 65 |  |  | 
COC(=O)[C@H](CN[C@@H](CC(=O)O)C(=O)O)NC[C@H](N)C(=O)OC | > 298 | 2 | 17.2 | > 298 | > 100 |  |  |  | 65 |  | 
N[C@H](CN[C@@H](CN[C@@H](CC(=O)O)C(=O)O)C(=O)O)C(=O)O | > 250 | < 0.5 | 9.3 | 62.5 (≈ 203 µM) | 50 |  |  |  |  | 65 | 
C[C@H](NC[C@H](NC[C@H](N)C(=O)O)C(=O)O)C(=O)O | > 250 | < 1.5 | 22.1 | 250 (≈ 950 µM) | > 100 |  |  | 65 |  |  | 
COC(=O)C[C@H](NC[C@H](NC[C@H](N)C(=O)O)C(=O)O)C(=O)OC | > 298 | 2 |  | > 298 | > 100 |  |  |  | 65 |  | Not Active
C[C@H](CC(=O)O)NC[C@H](NC[C@H](N)C(=O)O)C(=O)O | > 250 | < 1 | 94 | 125 (≈ 451 µM) | > 100 |  |  | 65 |  |  | 
N[C@@H](CN[C@@H](CN1CCC[C@H]1C(=O)O)C(=O)O)C(=O)O | > 280 | 2 | 12.8 | > 280 | > 100 |  |  |  | 65 |  | 
N[C@@H](CN[C@H](CN[C@@H](CC(=O)O)C(=O)O)C(=O)O)C(=O)O | > 250 | < 1 | 10.4 | 125 (≈ 407 µM) | 100 |  |  | 65 |  |  | 

Source: ChEMBL document CHEMBL4043151, “Synthesis and biological evaluation of Aspergillomarasmine A derivatives as novel NDM-1 inhibitor to overcome antibiotics resistance” (Bioorg Med Chem, 2017)
